Experimental data: patent US6013802A, “Fluorescent conjugates of metal-chelating nitrogen heterocycles” (Molecular Probes, Inc., priority 1997, dated 2000)

Test: Fluorescent detection of Cu2+ in seawater (high salt)
Settings: 1 μM dye in seawater; zero to 10 μM added Cu2+ (CuCl2)
Protocol: The metal-ion indicators of the present invention can be used to detect low levels of target ions in the presence of very high concentrations of other mono- and divalent cations. For example, a solution of a green fluorescent phenanthroline derivative (as described in Example 1) is diluted into freshly collected, unfiltered seawater to give a dye concentration of 1 μM. Using 10 mM EGTA, pH 7.20, 100 mM KCL in 10 mM MOPS as a standard, the fluorescence emission of the indicator solution is scanned from 450 nm to 650 nm in a Perkin Elmer PE-450 fluorimeter with excitation at 488 nm.

fluorescence emission remaining, of original emission intensity, after added Cu^2+: approximately 10%
SMILES: O=C1OC2(c3ccc(O)cc3Oc3cc(O)ccc32)c2ccc(NC(=S)Nc3cc4cccnc4c4ncccc34)cc21
